Assay results from patent US11952362B2, “Compositions and methods for treating epigenetic disease” (The Regents of the University of California, priority 2018, dated 2024).
Where a name gives a salt, the structure may show the parent alone.

Experiments:
[1] = Water solubility of MJK compounds; assay type: physicochemical
Description: Solubility of MJK compounds: The development of an oral formulation for patients with auto-immune diseases, including Crohn's Disease, is preferential and less expensive, avoiding the need of hospitalization in comparison to the intracolonic (enema) administration. Thus, the water solubility and physical properties of the MJK compounds were examined. […] MJK-008 is the highest soluble MJK compound.

TNBS colitis = TNBS colitis in mice; assay type: in vivo; conditions: i.c. administration, 50 mg/kg daily for 5 days, day 4, vs vehicle-treated mice
Procedure: Male C57BL/6J mice 8-10 weeks old were purchased from The Jackson Laboratory (Sacramento, CA, USA). Mice were housed 4 per cage, maintained on a 12:12 hour light-dark cycle and given access to food and water ad libitum. Following an acclimatization period of 3 to 5 days, trinitrobenzene sulfonic acid (TNBS, Millipore Sigma, St. Louis, MO, USA) colitis was induced by intracolonic (i.c.) injection of 0.05 ml TNBS solution (5 mg in 40% ethanol) via a polyethylene cannula (BD Intramedic PE-20 tubing, Thermo Fisher Scientific, Santa Clara, CA, USA) inserted 3.5 cm from the anal verge under isoflurane anesthesia (4% in O2 induction, 2.5-3% maintenance). Control mice received an injection of 40% ethanol (0.05 ml, i.c.). To test the effectiveness of the HDAC analogs, mice received a daily injection (0.1 ml, i.c.) of a selective HDAC class II inhibitor analog (50 mg/kg MJK001-013) or vehicle (5% dimethyl sulfoxide, Millipore Sigma) beginning one day prior to TNBS colitis induction (day −1) for a period of 5 days. Separate groups of mice received HDAC inhibitors or vehicle administered by daily oral gavage (50 mg/kg, 0.25 ml, p.o.). All analogs tested were first dissolved in dimethyl sulfoxide (DMSO) with rapid vortexing and subsequent dilution to 5% in sterile phosphate buffered saline (PBS; Gibco, Thermo Fisher Scientific). Vehicle contained 5% DMSO in sterile PBS. Prior to use, all solids were stored in amber (light-blocking) storage vials at 4° C. On the first day of administration, stock solutions were prepared, aliquoted and stored at −20° C. for daily use. Upon thawing, each aliquot was vortexed prior to intracolonic injection (via a polyethylene cannula) or oral gavage (20 ga×38 mm, Instech, Thermo Fisher Scientific). Following all in vivo experiments, animals were euthanized on day 4 by CO2 inhalation and cervical dislocation and the distal colons removed for further study.
Disease severity was assessed by weight loss and measurement of colon length and determination of clinical and histological damage scores on day 4 of the protocol. Briefly, clinical scores were calculated on a scale of 0-3 for degree of weight loss, bleeding, stool consistency and presence of rectal prolapse. Sections of colon (5 μm) fixed in 10% formalin, paraffin-embedded and stained with hematoxylin and eosin (H&E) were used for histological scoring using an AxioImager. Z1 microscope equipped with AxioVision software version 4.6 (Zeiss, Jena, Germany). Scoring was performed by two independent investigators blinded to the treatment conditions and resulting scores averaged. Scores were assigned based on the degree of crypt damage (0-4), polymorphonuclear neutrophil (PMN) infiltrate (0-3), erosion (0-3), and edema (0-3).
Statistical analyses were performed using GraphPad Prism (Version 5.0a; GraphPad Software, La Jolla, CA, USA). Differences were determined by unpaired t-test, 1-way analysis of variance, or a 2-way analysis of variance with Tukey's post-test. A p value <0.05 was considered to be statistically significant. Data presented are means±SEM for n animals.
Novel chemical HDAC inhibitors were developed aiming to target specific isoforms of the HDAC Class IIA members. Overall, as shown above, compounds have been synthesized, named MJK-001, -002, -003, -004, -005, -006, -007, -008, -009, -010, -011, -012 & -013. The effect of selective HDAC class IIA isoform inhibition during development of colitis in mice in vivo during TNBS administration was assessed. This mouse model is known to recapitulate many features of human Crohn's Disease. Mice received either an intracolonic (i.c.) injection or oral delivery (p.o.) of the MJK compounds once daily for a period of 5 days and health status, weight loss, and disease activity were monitored. Mice (male C57BL/6J, 8-10 wks old) are weighed and monitored daily. On the final day, blood, feces, and colonic samples for RNA, protein and histology are collected for downstream analysis. […]

[2] = listed as MJK-005, hydrochloride, 50 mg/kg
[3] = listed as MJK-013, hydrochloride, 50 mg/kg

In the case of `COc1cccc(C(=O)/C=C/c2ccc(/C=C/C(=O)NO)n2C)c1` [MJK002, (E)-N-hydroxy-3-(5-((E)-3-(3-methoxyphenyl)-3-oxoprop-1-en-1-yl)-1-methyl-1H-pyrrol-2-yl)acrylamide], the Solubility score [1] is reported as “more soluble than MJK-001 and MJK-003”, the clinical score (TNBS colitis; 50 mg/kg) is reported as “♦♦♦” and the colon length (TNBS colitis; 50 mg/kg) is reported as “♦”. The histological score (TNBS colitis; 50 mg/kg) was “did not yield significant differences and ns”, the clinical score (TNBS colitis; listed as MJK-002, 50 mg/kg) was “statistical significance in the reduction of the clinical score” and the colon length (TNBS colitis; listed as MJK-002, 50 mg/kg) was “increase of colon length”.

With `Cn1c(/C=C/C(=O)NO)ccc1/C=C/C(=O)c1cccc(Cl)c1` [MJK003, (E)-3-(5-((E)-3-(3-chlorophenyl)-3-oxoprop-1-en-1-yl)-1-methyl-1H-pyrrol-2-yl)-N-hydrox-yacrylamide] the clinical score (TNBS colitis; 50 mg/kg) was “♦♦”, the colon length (TNBS colitis; 50 mg/kg) was “♦” and the histological score (TNBS colitis; 50 mg/kg) was “did not yield significant differences and ns”. The clinical score (TNBS colitis; listed as MJK-003, 50 mg/kg) was “statistical significance in the reduction of the clinical score” and the colon length (TNBS colitis; listed as MJK-003, 50 mg/kg) was “increase of colon length”.

With `Cl.Cn1c(/C=C/C(=O)NO)ccc1/C=C/C(=O)c1ccsc1` [MJK005, (E)-N-hydroxy-3-(1-methyl-5-((E)-3-oxo-3-(thiophen-3-yl)prop-1-en-1-yl)-1H-pyrrol-2-yl)acrylamide hydrochloride] the clinical score (TNBS colitis; hydrochloride, 50 mg/kg) was “♦♦♦”, the colon length (TNBS colitis; hydrochloride, 50 mg/kg) was “ns” and the clinical score (TNBS colitis; [2]) was “reduction in clinical scoring”. The colon length (TNBS colitis; [2]) was “did not alter colon length”.

With `Cn1cccc1C(=O)/C=C/c1ccc(/C=C/C(=O)NO)n1C` [MJK007, (E)-N-Hydroxy-3-(1-methyl-5-((E)-3-(1-methyl-1H-pyrrol-2-yl)-3-oxoprop-1-en-1-yl)-1H-pyrrol-2-yl)acrylamide] the clinical score (TNBS colitis; 50 mg/kg) was “ns”, the colon length (TNBS colitis; 50 mg/kg) was “ns” and the clinical score (TNBS colitis; listed as MJK-007, 50 mg/kg) was “no significant differences”. For the same compound, the colon length (TNBS colitis; listed as MJK-007, 50 mg/kg) was “no significant differences”.

With `Cn1c(/C=C/C(=O)NO)ccc1/C=C/C(=O)c1cccnc1` [MJK009, (E)-N-Hydroxy-3-(1-methyl-5-((E)-3-oxo-3-(pyridin-3-yl)prop-1-en-1-yl)-1H-pyrrol-2-yl)ac-rylamid p-toluenesulfonic acid salt] the Solubility score [1] was “highest solubility”, the clinical score (TNBS colitis; 50 mg/kg) was “♦” and the colon length (TNBS colitis; 50 mg/kg) was “ns”. For the same compound, the clinical score (TNBS colitis; listed as MJK-009, 50 mg/kg) was “reduction in clinical scoring” and the colon length (TNBS colitis; listed as MJK-009, 50 mg/kg) was “did not alter colon length”.

In the case of `Cn1c(/C=C/C(=O)NO)ccc1/C=C/C(=O)c1ccccn1` [MJK010, (E)-N-Hydroxy-3-(1-methyl-5-((E)-3-oxo-3-(pyridin-2-yl)prop-1-en-1-yl)-1H-pyrrol-2-yl)acrylamide], the clinical score (TNBS colitis; 50 mg/kg) is reported as “ns”, the colon length (TNBS colitis; 50 mg/kg) is reported as “ns” and the clinical score (TNBS colitis; listed as MJK-010, 50 mg/kg) is reported as “no significant differences”. The colon length (TNBS colitis; listed as MJK-010, 50 mg/kg) was “no significant differences”.

In the case of `Cn1c(/C=C/C(=O)NO)ccc1/C=C/C(=O)c1ccncc1` [MJK011, (E)-N-hydroxy-3-(1-methyl-5-((E)-3-oxo-3-(pyridin-4-yl)prop-1-en-1-yl)-1H-pyrrol-2-yl)ac-rylamide], the Solubility score [1] is reported as “worst solubility”, the clinical score (TNBS colitis; 50 mg/kg) is reported as “♦♦♦” and the colon length (TNBS colitis; 50 mg/kg) is reported as “ns”. For the same compound, the clinical score (TNBS colitis; listed as MJK-011, 50 mg/kg) was “reduction in clinical scoring” and the colon length (TNBS colitis; listed as MJK-011, 50 mg/kg) was “did not alter colon length”.

For `Cn1c(/C=C/C(=O)NO)ccc1/C=C/C(=O)c1ccco1` [MJK012, (E)-3-(5-((E)-3-(Furan-2-yl)-3-oxoprop-1-en-1-yl)-1-methyl-1H-pyrrol-2-yl)-N-hydroxyacrylamide], the clinical score (TNBS colitis; 50 mg/kg) was “ns”, the colon length (TNBS colitis; 50 mg/kg) was “ns” and the clinical score (TNBS colitis; listed as MJK-012, 50 mg/kg) was “no significant differences”. The colon length (TNBS colitis; listed as MJK-012, 50 mg/kg) was “no significant differences”.

With `Cl.Cn1c(/C=C/C(=O)NO)ccc1/C=C/C(=O)c1cnccn1` [MJK013, (E)-N-Hydroxy-3-(1-methyl-5-((E)-3-oxo-3-(pyrazin-2-yl)prop-1-en-1-yl)-1H-pyrrol-2-yl)acrylamide hydrochloride] the clinical score (TNBS colitis; hydrochloride, 50 mg/kg) was “ns”, the colon length (TNBS colitis; hydrochloride, 50 mg/kg) was “ns” and the clinical score (TNBS colitis; [3]) was “no significant differences”. The colon length (TNBS colitis; [3]) was “no significant differences”.
